PubChem BioAssay (NCI)
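Dose response: 5 concentrations. Exposure: 48 h. Format: 96-well plates. Endpoint: linear interpolation; highest concentration if not reached. TGI denotes the concentration required for complete inhibition of growth.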

Tests used:
Experiment in all cases: NCI-60 cell line screen, 48 h
OVCAR-4 ovarian = system: OVCAR-4 ovarian
SF-295 CNS = system: SF-295 CNS
UACC-62 melanoma = system: UACC-62 melanoma
SN12C renal = system: SN12C renal
KM12 colon = system: KM12 colon
HS 578T breast = system: HS 578T breast
MDA-N = system: MDA-N
U251 CNS = system: U251 CNS
NCI-H522 lung = system: NCI-H522 lung
UACC-257 melanoma = system: UACC-257 melanoma
MOLT-4 leukemia = system: MOLT-4 leukemia
OVCAR-8 ovarian = system: OVCAR-8 ovarian
EKVX NSCLC = system: EKVX NSCLC
A549 NSCLC = system: A549 NSCLC
IGROV1 ovarian = system: IGROV1 ovarian
CAKI-1 renal = system: CAKI-1 renal
BT-549 breast = system: BT-549 breast
LOX IMVI melanoma = system: LOX IMVI melanoma
SNB-19 CNS = system: SNB-19 CNS
786-0 renal = system: 786-0 renal
HCT-15 colon = system: HCT-15 colon
HCC-2998 colon = system: HCC-2998 colon
SW-620 colon = system: SW-620 colon
M14 melanoma = system: M14 melanoma
MDA-MB-231 breast = system: MDA-MB-231 breast
NCI-H226 lung = system: NCI-H226 lung
PC-3 prostate = system: PC-3 prostate
SK-MEL-28 melanoma = system: SK-MEL-28 melanoma
DU-145 prostate = system: DU-145 prostate
K-562 leukemia = system: K-562 leukemia
OVCAR-5 ovarian = system: OVCAR-5 ovarian
ACHN renal = system: ACHN renal
RPMI-8226 leukemia = system: RPMI-8226 leukemia
SK-MEL-2 melanoma = system: SK-MEL-2 melanoma
OVCAR-3 ovarian = system: OVCAR-3 ovarian
SK-OV-3 ovarian = system: SK-OV-3 ovarian
UO-31 renal = system: UO-31 renal
NCI-H23 lung = system: NCI-H23 lung
COLO 205 colon = system: COLO 205 colon
HT29 colon = system: HT29 colon
NCI-H460 lung = system: NCI-H460 lung
CCRF-CEM leukemia = system: CCRF-CEM leukemia
NCI/ADR-RES ovarian = system: NCI/ADR-RES ovarian
HCT-116 colon = system: HCT-116 colon
T-47D breast = system: T-47D breast
SF-268 CNS = system: SF-268 CNS
RXF 393 renal = system: RXF 393 renal
SF-539 CNS = system: SF-539 CNS
HOP-92 NSCLC = system: HOP-92 NSCLC
MALME-3M melanoma = system: MALME-3M melanoma
MDA-MB-435 = system: MDA-MB-435
HL-60(TB) leukemia = system: HL-60(TB) leukemia
SNB-75 CNS = system: SNB-75 CNS
HOP-62 NSCLC = system: HOP-62 NSCLC
TK-10 renal = system: TK-10 renal
SK-MEL-5 melanoma = system: SK-MEL-5 melanoma
SR leukemia = system: SR leukemia
A498 renal = system: A498 renal

COc1c(-c2nc3nc(N4CCN(C)CC4)ccc3[nH]2)cc(OC)c2c1nc(CO)n2C
TGI (OVCAR-4 ovarian): > 100 µM
TGI (SF-295 CNS): > 100 µM
TGI (UACC-62 melanoma): > 100 µM
TGI (SN12C renal): > 100 µM
TGI (KM12 colon): > 100 µM
TGI (HS 578T breast): > 100 µM
TGI (MDA-N): > 100 µM
TGI (U251 CNS): > 100 µM
TGI (NCI-H522 lung): > 100 µM
TGI (UACC-257 melanoma): > 100 µM
TGI (MOLT-4 leukemia): > 100 µM
TGI (OVCAR-8 ovarian): > 100 µM
TGI (EKVX NSCLC): > 100 µM
TGI (A549 NSCLC): > 100 µM
TGI (IGROV1 ovarian): > 100 µM
TGI (CAKI-1 renal): > 100 µM
TGI (BT-549 breast): > 100 µM
TGI (LOX IMVI melanoma): > 100 µM
TGI (SNB-19 CNS): > 100 µM
TGI (786-0 renal): > 100 µM
TGI (HCT-15 colon): > 100 µM
TGI (HCC-2998 colon): > 100 µM
TGI (SW-620 colon): > 100 µM
TGI (M14 melanoma): > 100 µM
TGI (MDA-MB-231 breast): > 100 µM
TGI (NCI-H226 lung): > 100 µM
TGI (PC-3 prostate): > 100 µM
TGI (SK-MEL-28 melanoma): > 100 µM
TGI (DU-145 prostate): > 100 µM
TGI (K-562 leukemia): > 100 µM
TGI (OVCAR-5 ovarian): > 100 µM
TGI (ACHN renal): > 100 µM
TGI (RPMI-8226 leukemia): > 100 µM
TGI (SK-MEL-2 melanoma): > 100 µM
TGI (OVCAR-3 ovarian): > 100 µM
TGI (SK-OV-3 ovarian): > 100 µM
TGI (UO-31 renal): > 100 µM
TGI (NCI-H23 lung): > 100 µM
TGI (COLO 205 colon): > 100 µM
TGI (HT29 colon): > 100 µM
TGI (NCI-H460 lung): > 100 µM
TGI (CCRF-CEM leukemia): > 100 µM
TGI (NCI/ADR-RES ovarian): > 100 µM
TGI (HCT-116 colon): > 100 µM
TGI (T-47D breast): > 100 µM
TGI (SF-268 CNS): > 100 µM
TGI (RXF 393 renal): > 100 µM
TGI (SF-539 CNS): > 100 µM
TGI (HOP-92 NSCLC): > 100 µM
TGI (MALME-3M melanoma): > 100 µM
TGI (MDA-MB-435): > 100 µM
TGI (HL-60(TB) leukemia): > 100 µM
TGI (SNB-75 CNS): > 100 µM
TGI (HOP-62 NSCLC): > 100 µM

Fc1cc(-c2cc(-c3ccccc3)n[nH]2)c(Cl)cc1Cl
TGI (TK-10 renal): > 100 µM
TGI (OVCAR-4 ovarian): > 100 µM
TGI (SF-295 CNS): > 100 µM
TGI (SN12C renal): > 100 µM
TGI (KM12 colon): > 100 µM
TGI (HS 578T breast): > 100 µM
TGI (MDA-N): > 100 µM
TGI (SK-MEL-5 melanoma): > 100 µM
TGI (U251 CNS): > 100 µM
TGI (NCI-H522 lung): > 100 µM
TGI (UACC-257 melanoma): > 100 µM
TGI (MOLT-4 leukemia): 57.6 µM
TGI (OVCAR-8 ovarian): > 100 µM
TGI (EKVX NSCLC): > 100 µM
TGI (A549 NSCLC): > 100 µM
TGI (IGROV1 ovarian): > 100 µM
TGI (CAKI-1 renal): > 100 µM
TGI (BT-549 breast): > 100 µM
TGI (LOX IMVI melanoma): > 100 µM
TGI (SNB-19 CNS): > 100 µM
TGI (786-0 renal): > 100 µM
TGI (HCT-15 colon): > 100 µM
TGI (SW-620 colon): > 100 µM
TGI (M14 melanoma): > 100 µM
TGI (MDA-MB-231 breast): > 100 µM
TGI (NCI-H226 lung): > 100 µM
TGI (PC-3 prostate): > 100 µM
TGI (SK-MEL-28 melanoma): > 100 µM
TGI (DU-145 prostate): > 100 µM
TGI (K-562 leukemia): 23.2 µM
TGI (OVCAR-5 ovarian): > 100 µM
TGI (ACHN renal): > 100 µM
TGI (RPMI-8226 leukemia): > 100 µM
TGI (SK-MEL-2 melanoma): > 100 µM
TGI (OVCAR-3 ovarian): > 100 µM
TGI (SK-OV-3 ovarian): > 100 µM
TGI (UO-31 renal): > 100 µM
TGI (NCI-H23 lung): > 100 µM
TGI (COLO 205 colon): > 100 µM
TGI (HT29 colon): > 100 µM
TGI (NCI-H460 lung): > 100 µM
TGI (CCRF-CEM leukemia): > 100 µM
TGI (NCI/ADR-RES ovarian): > 100 µM
TGI (HCT-116 colon): > 100 µM
TGI (T-47D breast): > 100 µM
TGI (SF-268 CNS): > 100 µM
TGI (RXF 393 renal): > 100 µM
TGI (SF-539 CNS): 60.7 µM
TGI (HOP-92 NSCLC): > 100 µM
TGI (SR leukemia): > 100 µM
TGI (MALME-3M melanoma): > 100 µM
TGI (MDA-MB-435): > 100 µM
TGI (HL-60(TB) leukemia): > 100 µM
TGI (SNB-75 CNS): > 100 µM
TGI (HOP-62 NSCLC): > 100 µM

Cc1nc2c(=O)n(C)c(=O)n(C)c2o1
TGI (TK-10 renal): > 100 µM
TGI (OVCAR-4 ovarian): > 100 µM
TGI (SF-295 CNS): > 100 µM
TGI (UACC-62 melanoma): > 100 µM
TGI (SN12C renal): > 100 µM
TGI (KM12 colon): > 100 µM
TGI (HS 578T breast): > 100 µM
TGI (MDA-N): > 100 µM
TGI (SK-MEL-5 melanoma): > 100 µM
TGI (U251 CNS): > 100 µM
TGI (NCI-H522 lung): > 100 µM
TGI (UACC-257 melanoma): > 100 µM
TGI (MOLT-4 leukemia): > 100 µM
TGI (OVCAR-8 ovarian): > 100 µM
TGI (EKVX NSCLC): > 100 µM
TGI (A549 NSCLC): > 100 µM
TGI (IGROV1 ovarian): > 100 µM
TGI (CAKI-1 renal): > 100 µM
TGI (BT-549 breast): > 100 µM
TGI (LOX IMVI melanoma): > 100 µM
TGI (SNB-19 CNS): > 100 µM
TGI (786-0 renal): > 100 µM
TGI (HCT-15 colon): > 100 µM
TGI (HCC-2998 colon): > 100 µM
TGI (SW-620 colon): > 100 µM
TGI (M14 melanoma): > 100 µM
TGI (MDA-MB-231 breast): > 100 µM
TGI (NCI-H226 lung): > 100 µM
TGI (PC-3 prostate): > 100 µM
TGI (K-562 leukemia): > 100 µM
TGI (OVCAR-5 ovarian): > 100 µM
TGI (ACHN renal): > 100 µM
TGI (RPMI-8226 leukemia): > 100 µM
TGI (SK-MEL-2 melanoma): > 100 µM
TGI (OVCAR-3 ovarian): > 100 µM
TGI (SK-OV-3 ovarian): > 100 µM
TGI (UO-31 renal): > 100 µM
TGI (NCI-H23 lung): > 100 µM
TGI (COLO 205 colon): > 100 µM
TGI (HT29 colon): > 100 µM
TGI (NCI-H460 lung): > 100 µM
TGI (CCRF-CEM leukemia): > 100 µM
TGI (NCI/ADR-RES ovarian): > 100 µM
TGI (HCT-116 colon): > 100 µM
TGI (A498 renal): > 100 µM
TGI (T-47D breast): > 100 µM
TGI (SF-268 CNS): > 100 µM
TGI (RXF 393 renal): > 100 µM
TGI (SF-539 CNS): > 100 µM
TGI (HOP-92 NSCLC): > 100 µM
TGI (SR leukemia): > 100 µM
TGI (MALME-3M melanoma): > 100 µM
TGI (MDA-MB-435): > 100 µM
TGI (SNB-75 CNS): > 100 µM
TGI (HOP-62 NSCLC): > 100 µM
